Patent publication US20240262815A1, “HETEROARYL DERIVATIVE, METHOD FOR PREPARING SAME, AND PHARMACEUTICAL COMPOSITION COMPRISING SAME AS ACTIVE INGREDIENT” (VORONOI INC., priority 2021, published 2024)

Columns and labels:
[1] = tested on: SK-BR-3 cancer cells; experiment: Inhibitory activity against proliferation of SK-BR-3 cancer cells (CellTiter-Glo); assay type: cell-based; conditions: Homo sapiens, SK-BR-3, 120 h, ErbB2-overexpressing SK-BR-3 cells, 120 hours after treatment
In short: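 GI50 derived from % growth relative to control, measured by CellTiter-Glo luminescence after 120 h compound exposure (12 concentrations, 0.2 nM-5 μM final, n=3). BT-474 grown in RPMI-1640/20% FBS, SK-BR-3 in McCOY'S 5A/10% FBS; seeding 48 h pre-treatment.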

[2] = tested on: BT-474 cancer cells; experiment: Inhibitory activity against proliferation of BT-474 cancer cells (CellTiter-Glo); assay type: cell-based; conditions: Homo sapiens, BT-474 ErbB2-overexpressing cancer cells, 120 hours after treatment
Method: To evaluate the inhibitory activity of a compound according to the present invention against the proliferation of ErbB2-overexpressing cancer cells, the following experiment were performed.
10% FBS-added McCOY'S 5A was used for SK-BR-3 cancer cells. 20% FBS-added RPMI-1640 was used for BT-474 cancer cells. Transduced Ba/F3 cells were cultured in a RPMI-1640 medium to which 1 μg/ml puromycin (Invitrogen) was added.
48 hours before compound treatment, each type of the SK-BR-3 and BT-474 cells were seeded at 5,000 cells/well in a white clear bottom 96 well plate (Corning). The compound was diluted in dimethyl sulfoxide (SK-BR-3: 3-fold dilution, a total of 12 concentrations, BT-474: […], a total of 12 concentrations) and injected at 1 μl to have the final concentration of 0.2 nM to 5 μM. As for measurement of live cells, 120 hours after treatment with the compound, a CellTiter-Glo luminescent cell-viability reagent (Promega) was used to store the cells at room temperature for 10 minutes, followed by measurement of luminescence using a reader (SynergyNeo, Biotek). Each test was repeated three times.
The result values were calculated as a cell growth rate (%) compared to the control group. A graph was plotted using the GraphPad Prism version 8.3.0 program, and GI50 values were calculated.

| Compound | GI50 [1] [µM] | GI50 [2] [µM] |
| --- | --- | --- |
| C=CC(=O)Nc1cc(Nc2cc(N3OCC[C@@H]3c3cccc(OCc4cccc(F)c4)c3)ncn2)c(OC)cc1N(C)CCN(C)C [Example 228, (R)-N-(2-((2-(dimethylamino)-ethyl)(methyl)-amino)-5-((6-(3-(3-((3-fluorobenz-yl)oxy)phenyl)-isoxazolidin-2-yl)-pyrimidin-4-yl)-amino)-4-methoxy-phenyl)acrylamide] | < 0.05 | < 0.05 |
| C=CC(=O)Nc1cc(Nc2cc(N3OCC[C@@H]3c3cccc(-c4ccccc4)c3)ncn2)c(OC)cc1N1CCC(N2CCN(C3CC3)[C@@H](C)C2)CC1 [Example 231, N-(5-((6-((R)-3-([1,1′-biphenyl]-3-yl)isoxazolidin-2-yl)pyrimidin-4-yl)amino)-2-(4-((S)-4-cycloprop-yl-3-methylpiper-azin-1-yl)piperidin-1-yl)-4-methoxy-phenyl)acrylamide] | < 0.05 | < 0.05 |
| C=CC(=O)Nc1cc(Nc2cc(N3OCCC3c3cccc(-c4cnn(C)c4)c3)ncn2)c(OC)cc1N(C)CCN(C)C (centres unmarked) [Example 233, N-(2-((2-(dimeth-ylamino)ethyl)-(methyl)amino)-4-methoxy-5-((6-(3-(3-(1-methyl-1H-pyrazol-4-yl)phen-yl)isoxazolidin-2-yl)pyrimidin-4-yl)amino)phenyl)-acrylamide] | < 0.05 | < 0.05 |
| C=CC(=O)Nc1cc(Nc2cc(N3OCC[C@@H]3c3cccc(C(=O)NC(C)C)c3)ncn2)c(OC)cc1N1CCC(N2CCN(C3CC3)CC2)CC1 [Example 253, (R)-3-(2-(6-((5-acrylamido-4-(4-(4-cyclopropyl-piperazin-1-yl)-piperidin-1-yl)-2-methoxyphenyl)-amino)pyrimidin-4-yl)isoxazolidin-3-yl)-N-isopropyl-benzamide] | < 0.05 | < 0.05 |
| C=CC(=O)Nc1cc(Nc2cc(N3OCCC3c3cccc(-c4cc(F)cc(F)c4)c3)ncn2)c(OC)cc1N(C)CCN(C)C (centres unmarked) [Example 265, N-(5-((6-(3-(3′,5′-difluoro-[1,1′-biphenyl]-3-yl)-isoxazolidin-2-yl)-pyrimidin-4-yl)-amino)-2-((2-(dimethylamino)-ethyl)(methyl)-amino)-4-meth-oxyphenyl)acryl-amide] | < 0.05 | < 0.05 |
| C=CC(=O)Nc1cc(Nc2cc(N3OCC[C@@H]3c3cccc(-c4cc(F)cc(F)c4)c3)ncn2)c(OC)cc1N1CCC(N2CCN(C3CC3)[C@@H](C)C2)CC1 [Example 274, N-(2-(4-((S)-4-cyclopropyl-3-methylpiperazin-1-yl)piperidin-1-yl)-5-((6-((R)-3-(3′,5′-difluoro-[1,1′-biphenyl]-3-yl)isoxazolidin-2-yl)pyrimidin-4-yl)amino)-4-meth-oxyphenyl)acryl-amide] | < 0.05 | < 0.05 |
| C=CC(=O)Nc1cc(Nc2cc(N3OCC[C@@H]3c3cccc(-c4ccc(F)cc4F)c3)ncn2)c(OC)cc1N(C)CCN(C)C [Example 279, (R)-N-(5-((6-(3-(2′,4′-difluoro-[1,1′-biphenyl]-3-yl)isoxazolidin-2-yl)pyrimidin-4-yl)amino)-2-((2-(dimethylamino)-ethyl)(methyl)-amino)-4-methoxy-phenyl)acrylamide] | < 0.05 | < 0.05 |
| C=CC(=O)Nc1cc(Nc2cc(N3OCC[C@@H]3c3cccc(-c4cccc(C(F)(F)F)c4F)c3)ncn2)c(OC)cc1N(C)CCN(C)C [Example 280, (R)-N-(2-((2-(dimethylamino)-ethyl)(methyl)-amino)-5-((6-(3-(2′-fluoro-3′-(trifluoromethyl)-[1,1′-biphenyl]-3-yl)isoxazolidin-2-yl)pyrimidin-4-yl)-amino)-4-methoxy-phenyl)acrylamide] | < 0.05 | < 0.05 |
| C=CC(=O)Nc1cc(Nc2cc(N3OCC[C@@H]3c3cccc(-c4cccc(C(F)(F)F)c4F)c3)ncn2)c(OC)cc1N1CCN(C)CC1 [Example 282, (R)-N-(5-((6-(3-(2′-fluoro-3′-(tri-fluoromethyl)-[1,1′-biphenyl]-3-yl)isoxazolidin-2-yl)pyrimidin-4-yl)-amino)-4-methoxy-2-(4-methylpiper-azin-1-yl)phenyl)-acrylamide] | 0.05 to 0.5 | < 0.05 |

Continued, values first:

| GI50 [1] [µM] | GI50 [2] [µM] | Compound |
| --- | --- | --- |
| < 0.05 | < 0.05 | C=CC(=O)Nc1cc(Nc2cc(N3OCC[C@@H]3c3cccc(-c4cccc(F)c4)c3)ncn2)c(OC)cc1N1CCN(C)CC1 [Example 242, (R)-N-(5-((6-(3-(3′-fluoro-[1,1′-biphen-yl]-3-yl)isoxazol-idin-2-yl)pyrim-idin-4-yl)amino)-4-methoxy-2-(4-methylpiperazin-1-yl)phenyl)-acrylamide] |
| < 0.05 | < 0.05 | C=CC(=O)Nc1cc(Nc2cc(N3OCC[C@@H]3c3cccc(-c4cc(F)cc(F)c4)c3)ncn2)c(OC)cc1N1CCN(C(C)=O)CC1 [Example 275, (R)-N-(2-(4-acetyl-piperazin-1-yl)-5-((6-(3-(3′,5′-difluoro-[1,1′-biphenyl]-3-yl)-isoxazolidin-2-yl)-pyrimidin-4-yl)-amino)-4-meth-oxyphenyl)acryl-amide] |
| < 0.05 | < 0.05 | C=CC(=O)Nc1cc(Nc2cc(N3OCC[C@@H]3c3cccc(-c4cc(F)cc(F)c4)c3)ncn2)c(OC)cc1N1CCN(C)CC1 [Example 276, (R)-N-(5-((6-(3-(3′,5′-difluoro-[1,1′-biphenyl]-3-yl)isoxazolidin-2-yl)pyrimidin-4-yl)-amino)-4-methoxy-2-(4-methylpiper-azin-1-yl)phenyl)-acrylamide] |
| < 0.05 | < 0.05 | C=CC(=O)Nc1cc(Nc2cc(N3OCC[C@@H]3c3cccc(-c4cc(F)cc(F)c4)c3)ncn2)c(OC)cc1N1CCN(CCC)CC1 [Example 278, (R)-N-(5-((6-(3-(3′,5′-difluoro-[1,1′-biphenyl]-3-yl)isoxazolidin-2-yl)pyrimidin-4-yl)-amino)-4-methoxy-2-(4-propylpiper-azin-1-yl)phenyl)-acrylamide] |
| < 0.05 | < 0.05 | C=CC(=O)Nc1cc(Nc2cc(N3OCC[C@@H]3c3cccc(-c4ccc(F)cc4F)c3)ncn2)c(OC)cc1N1CCN(C)CC1 [Example 281, (R)-N-(5-((6-(3-(2′,4′-difluoro-[1,1′-biphenyl]-3-yl)isoxazolidin-2-yl)pyrimidin-4-yl)-amino)-4-methoxy-2-(4-methylpiper-azin-1-yl)phenyl)-acrylamide] |
| 0.05 to 0.5 | < 0.05 | C=CC(=O)Nc1cc(Nc2cc(N3OCC[C@@H]3c3cccc(-c4cc(F)cc(C(F)(F)F)c4)c3)ncn2)c(OC)cc1N1CCN(C)CC1 [Example 283, (R)-N-(5-((6-(3-(3′-fluoro-5′-(trifluoromethyl)-[1,1′-biphenyl]-3-yl)isoxazolidin-2-yl)pyrimidin-4-yl)-amino)-4-methoxy-2-(4-methylpiper-azin-1-yl)phenyl)-acrylamide] |
| < 0.05 | < 0.05 | C=CC(=O)Nc1cc(Nc2cc(N3OCC[C@@H]3c3cccc(-c4cccc(F)c4F)c3)ncn2)c(OC)cc1N1CCN(C)CC1 [Example 284, (R)-N-(5-((6-(3-(2′,3′-difluoro-[1,1′-biphenyl]-3-yl)isoxazolidin-2-yl)pyrimidin-4-yl)-amino)-4-methoxy-2-(4-methylpiper-azin-1-yl)phenyl)-acrylamide] |
